Assays:
PDK1 = target: T1, PDK1 (Homo sapiens, UniProt O15530); assay: PDK1 activity assay with T308tide and [γ32P]ATP; type: biochemical; set-up: made in house; host or cells: HEK293 (GST fusion) or Sf9 insect cells (His form); conditions: full-length PDK1
T1 sequence (O15530 1-556): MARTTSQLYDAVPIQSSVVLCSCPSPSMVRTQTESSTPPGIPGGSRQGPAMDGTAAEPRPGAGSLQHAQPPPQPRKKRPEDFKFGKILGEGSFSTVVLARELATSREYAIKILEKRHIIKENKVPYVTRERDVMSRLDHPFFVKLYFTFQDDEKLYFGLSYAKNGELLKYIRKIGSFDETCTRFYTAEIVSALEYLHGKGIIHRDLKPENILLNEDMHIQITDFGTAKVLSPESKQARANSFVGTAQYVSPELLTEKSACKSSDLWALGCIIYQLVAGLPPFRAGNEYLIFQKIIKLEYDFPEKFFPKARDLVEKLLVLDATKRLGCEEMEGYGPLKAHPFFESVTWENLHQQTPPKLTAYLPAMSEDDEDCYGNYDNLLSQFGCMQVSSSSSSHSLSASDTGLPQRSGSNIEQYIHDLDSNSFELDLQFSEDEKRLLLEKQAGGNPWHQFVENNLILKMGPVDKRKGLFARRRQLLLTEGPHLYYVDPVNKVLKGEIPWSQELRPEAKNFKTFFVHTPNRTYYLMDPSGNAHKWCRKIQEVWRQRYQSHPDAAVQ
Method: The PDK1 activity assay using T308tide as a substrate was performed essentially as previously described ([18], [28], [54]). In brief, the assay was performed in a 20 μl format containing 50 mM Tris pH 7.5, 0.05 mg/ml BSA, 0.1% ß-mercaptoethanol, 10 mM MgCl2, 100 μM [γ^32P]ATP (5-50 cpm/pmol), 0.003% Brij, 150-500 ng PDK1, and T308tide (0.3 mM) at room temperature. The assay was performed in 96 well plated and stopped by the addition of 5 μl of 0.1 % phosphoric acid. 4 μl aliquots were spotted on p81 phosphocellulose papers (Whatmann) using ep motion 5070 (Eppendorf). The phosphocellulose papers were washed in 0.01% phosphoric acid, dried, and exposed using PhosphoImager (FLA-9000 Starion). Data were analyzed with ImageQuant software (Fujifilm). Activity measurements were performed in technical duplicates or triplicates with less than 10% difference between replicates. Experiments were repeated at least twice. The activity measurements of PDK1 towards GS-022 and GS-023 were performed similarly, with the GS-peptides replacing T308tide at the indicated concentrations. GS-022 and GS-023 have features consistent with the loose characteristics disclosed for the peptide Ser/Thr 07, ((R/K)1-3(X)0-2 (S/T) (X)0-2(R/K)1-3, where X is any residue) used by the commercial “PDK1 Direct” assay.

[1] = target: T2, full-length PDK1 (GST-PDK1_1-556) (Homo sapiens, UniProt O15530); assay: Lipid overlay assay, di-C18-PIP3, full-length PDK1; type: binding
T2 construct: made in house; host or cells: HEK293 cells (transient transfection of pEBG2T)
T2 sequence (O15530 1-556): T1 sequence (O15530 1-556)
Method: Dots containing 2-1000 picomoles of di-C18-PIP3 ([70]) were prepared by spotting 1 μL of serial dilution stock solutions (2-1000 μM dissolved in a 1:2:0.8 by volume mixture of chloroform/methanol/water) onto Hybond-C extra membrane (GE Healthcare), which were dried at room temperature. Membranes were incubated with blocking buffer (50 mm Tris-HCl buffer pH 7.5, 2 mg/ml fatty acid free bovine serum albumin, 150 mM NaCl, and 0.1% (v/v) Tween 20) for 1 h at room temperature. Membranes were then incubated with 10 nM protein/10 μM inhibitor mixes in blocking buffer with gentle rocking overnight at 4 °C. Membranes were washed 10 times over 1 h at room temperature using TBST buffer (50 mM Tris-HCl pH 7.5, 150 mM NaCl, 0.1% (v/v) Tween 20) before being incubated for 1 h with 1:2000 dilution of rabbit recombinant anti-PDK1 monoclonal antibody (New England Biolabs). Membranes were washed and incubated with 1:2000 dilution of anti-rabbit HRP conjugated antibody (Invitrogen/Thermo Fisher) for 1 h at room temperature. Finally, after washing, proteins bound to the membranes were detected using Novex ECL chemiluminescent reagent (Invitrogen/Thermo Fisher) and developed on X-ray film.

effect on activity of full-length PDK1 toward T308tide (PDK1) | displacement of the interaction between PIP3 and full-length PDK1_1-556 [1] | Compound
partially inhibited |  | O=C(O[C@H]1[C@@H](OP(=O)(O)O)[C@H](OP(=O)(O)O)[C@@H](OP(=O)(O)O)[C@H](OP(=O)(O)O)[C@H]1OP(=O)(O)O)c1ccccc1 [HYG8, 2-O-benzoyl-IP5]
 | much more potent | CCCCO[C@H]1[C@@H](OP(=O)(O)O)[C@H](OP(=O)(O)O)[C@@H](OP(=O)(O)O)[C@H](OP(=O)(O)O)[C@H]1OP(=O)(O)O [HYG14, 2-O-butyl-IP5]

Reference: PMC7614687, “Modulation of the substrate specificity of the kinase PDK1 by distinct conformations of the full-length protein*” (Science signaling, 2023)
